{"source": "the OPERA property sets (Mansouri et al. 2018)", "note": "Peptide text beside a SMILES is read from it."}
{"details": "not given"}
{"smiles": "CCCN(C)/N=N/c1ccc(C(N)=O)cc1", "logP": 2.17}
{"smiles": "CC1=NN(CCOc2ccc3ccccc3c2)C(=O)C1", "logP": 2.74}
{"smiles": "CCOC(=O)C(=Cc1c(Cl)cccc1Cl)C(C)=O", "logP": 2.86}
{"smiles": "CN(C)CCOC(=O)c1ccc(Cl)cc1", "logP": 2.63}
{"smiles": "O=CNC(=O)C1CCC1", "logP": -0.7}
{"smiles": "c1ccc(-c2ccncc2)cc1", "logP": 2.59}
{"smiles": "CS(C)(=O)=O", "logP": -1.41}
{"smiles": "CCOc1ccc(N)cc1", "logP": 1.24}
{"smiles": "ICI", "logP": 2.3}
{"smiles": "CCC(C)CC(=O)OCC1CCC(n2cnc3c(=O)[nH]cnc32)O1", "note": "(centres undefined)", "logP": 1}
{"smiles": "NC(=S)c1cccs1", "logP": 1.34}
{"smiles": "C1=CC=CC=CC=C1", "logP": 3.08}
{"smiles": "OCCn1nnc2ccccc21", "logP": 0.5}
{"smiles": "CC(C)(C)C(=O)C(Oc1ccc(Cl)cc1)n1cncn1", "note": "(centres undefined)", "logP": 2.77}
{"smiles": "OC(c1ccc(Cl)cc1)(c1cncnc1)c1ccccc1Cl", "note": "(centres undefined)", "logP": 3.6}
{"smiles": "O=C(O)c1ccc(O)cc1", "logP": 1.58}
{"smiles": "CC(C)Oc1cc(-n2nc(C(C)(C)C)oc2=O)c(Cl)cc1Cl", "logP": 4.8}
{"smiles": "CCCCCCOCc1cccc(NC(=O)OCCN2CCCCC2)c1", "logP": 4.97}
{"smiles": "c1ccc2ncccc2c1", "logP": 2.03}
{"smiles": "N=C(N)NS(=O)(=O)c1ccc(N)cc1", "logP": -1.22}
{"smiles": "N#Cc1ccnc2ccccc12", "logP": 1.98}
{"smiles": "C1OC1CN1CCN(CC2CO2)CC1", "note": "(centres undefined)", "logP": -0.84}
{"smiles": "FC(F)Cl", "logP": 1.08}
{"smiles": "CCCCOc1ccc(OC(=O)NC)cc1", "logP": 2.86}
{"smiles": "Cc1n[nH]c(C(=O)N(C)Cc2ccccc2)c1[N+](=O)[O-]", "logP": 1.65}
{"smiles": "O=C(O)Cc1cccc(O)c1", "logP": 0.85}
{"smiles": "CCCCCCOC(=O)n1cnc(C)c1CSCCNC(=NC#N)NC", "logP": 3.1}
{"smiles": "O=C(O)c1ccc2ccccc2c1", "logP": 3.28}
{"smiles": "Cc1[nH]cnc1CSCCNc1nc(=O)cc[nH]1", "logP": 0.02}
{"smiles": "COCC(c1c(O)c2ccccc2oc1=O)c1c(O)c2ccccc2oc1=O", "logP": 1.38}
{"smiles": "CCOP(=S)(OCC)Oc1cc(C)nc(C(C)C)n1", "logP": 3.81}
{"smiles": "CC(C)COC(=O)c1ccccc1C(=O)OCC(C)C", "logP": 4.11}
{"smiles": "CC(C)N1CCN=C1CN1CCCCSc2ccc(Cl)cc21", "logP": 5.15}
{"smiles": "O=P(O)(O)c1ccccc1", "logP": 0.54}
{"smiles": "CCc1ccccc1N", "logP": 1.74}
{"smiles": "CC(C)(C)C(=O)NN", "logP": -0.35}
{"smiles": "O=C(O)c1cccc([N+](=O)[O-])c1", "logP": 1.83}
{"smiles": "O=[N+]([O-])c1ccccc1C(F)(F)F", "logP": 2.58}
{"smiles": "CCCNC(=O)NO", "logP": -0.22}
{"smiles": "CNC(=O)Oc1ccc2ccccc2c1", "logP": 2.56}
{"smiles": "COc1ccc(OCC(=O)NNC(C)C)cc1", "logP": 1.21}
{"smiles": "CN(C)C(N(C)C)=S(I)c1cccc(Br)c1", "note": "(centres undefined)", "logP": 0.01}
{"smiles": "CCOC(=O)C(Cc1ccccc1)C(=O)OCC", "logP": 2.76}
{"smiles": "Cc1cc(=O)[nH]o1", "logP": 0.46}
{"smiles": "Oc1ccc(Nc2ccccc2)cc1", "logP": 2.82}
{"smiles": "OCC(Br)(Br)Br", "logP": 2.1}
{"smiles": "CCCCCCNC(=O)c1ccc(S(N)(=O)=O)cc1", "logP": 2.05}
{"smiles": "O=c1[nH]c(=O)n([C@H]2C[C@H](O)[C@@H](CO)O2)cc1Br", "logP": -0.29}
{"smiles": "Nc1nc2cc(Cl)ccc2[nH]1", "logP": 1.88}
{"smiles": "O=Cc1ccc([N+](=O)[O-])cc1", "logP": 1.56}
{"smiles": "CCC1Nc2cc(Cl)c(S(N)(=O)=O)cc2S(=O)(=O)N1", "note": "(centres undefined)", "logP": 0.3}
{"smiles": "CCN1CC(C(O)C(CC2CCCCC2)NC(=O)C(Cc2cnc[nH]2)NC(=O)C(CC(=O)N2CC(OCOC)C(OCOC)C2)Cc2ccccc2)OC1=O", "note": "(centres undefined)", "logP": 2.31}
{"smiles": "CN(C)c1nc(N)nc(N(C)C)n1", "logP": 1.2}
{"smiles": "C=CCc1ccccc1", "logP": 3.23}
{"smiles": "Oc1cc(Cl)cc(Cl)c1Cl", "logP": 3.84}
{"smiles": "S=C=NCCc1ccccc1", "logP": 3.47}
{"smiles": "COC(OC)OC", "logP": 0.25}
{"smiles": "[N-]=[N+]=NC1CC(n2cnc3c(=O)[nH]c(N)nc32)OC1CO", "note": "(centres undefined)", "logP": -0.33}
{"smiles": "CC(=O)c1cccnc1", "logP": 0.43}
{"smiles": "CC(C)(C)C(O)C(Oc1ccc(-c2ccccc2)cc1)n1cncn1", "note": "(centres undefined)", "logP": 4.16}
{"smiles": "COc1cc2c(c(OC)c1OC)-c1ccc(OC)c(=O)cc1C(N)CC2", "note": "(centres undefined)", "logP": 1.1}
{"smiles": "N[C@@H](CCC(=O)O)C(=O)O", "logP": -3.69}
{"smiles": "Oc1ccc(C2CCCCC2)cc1", "logP": 4.22}
{"smiles": "CC1(C)S[C@@H]2[C@H](NC(=O)C(C(=O)O)c3ccccc3)C(=O)N2[C@H]1C(=O)O", "note": "(some centres undefined)", "logP": 1.13}
{"smiles": "O=[N+]([O-])c1ccccc1Nc1ccccc1", "logP": 3.66}
{"smiles": "O=C(CCl)Nc1ccccc1", "logP": 1.63}
{"smiles": "c1ccc(-n2cccc2)cc1", "logP": 3.08}
{"smiles": "CC(=O)Nc1ccc(N(C)C)cc1", "logP": 1}
{"smiles": "c1ccc2c(c1)oc1ccccc12", "logP": 4.12}
{"smiles": "O=C(O)Cn1cccc1", "logP": 0.7}
{"smiles": "Cc1ccc(COC(N)=O)cc1", "logP": 1.76}
{"smiles": "CCCC[SiH](C)C", "logP": 3.57}
{"smiles": "N#Cc1sc2c(=O)c3ccccc3c(=O)c=2sc1C#N", "logP": 2.84}
{"smiles": "CC(Cl)[N+](=O)[O-]", "note": "(centres undefined)", "logP": 1.1}
{"smiles": "OCc1ccc(O)cc1", "logP": 0.25}
{"smiles": "NNP(=O)(Oc1ccccc1)Oc1ccccc1", "logP": 1.51}
{"smiles": "Fc1ccccc1F", "logP": 2.37}
{"smiles": "COC(=O)c1ccccc1N", "logP": 1.88}
{"smiles": "COC(=O)c1cnc2n(c1=O)C(C(C)C)CCC2", "note": "(centres undefined)", "logP": 0.99}
{"smiles": "C=CC=C", "logP": 1.99}
{"smiles": "CC(C)CN(N=O)C(N)=O", "logP": 1.04}
{"smiles": "CC(C)C[C@H](N)C(=O)O", "logP": -1.52}
{"smiles": "CC1(C)S[C@@H]2[C@H](NC(=O)COc3ccccc3)C(=O)N2[C@H]1C(=O)O", "logP": 2.09}
{"smiles": "CC=C(C)C1(C)CC(=O)C(C(CCC)=NOCC)C(=O)O1", "note": "(centres undefined)", "logP": 3.4}
{"smiles": "CNC(=O)Oc1ccccc1C#N", "logP": 0.86}
{"smiles": "CC1(C)NC(=O)NC1=O", "logP": -0.48}
{"smiles": "CCCCCCCOC(=O)C(C(=O)OCCCCCCC)=C1SCCS1", "logP": 7.6}
{"smiles": "Cc1[nH]ncc1[N+](=O)[O-]", "logP": 1.02}
{"smiles": "CC(=O)[C@H]1CC[C@H]2[C@@H]3CC=C4C[C@@H](O)CC[C@]4(C)[C@H]3CC[C@]12C", "logP": 4.22}
{"smiles": "COc1cccc(OCC(=O)O)c1", "logP": 1.38}
{"smiles": "COc1ccc(NS(=O)(=O)c2ccc(N)cc2)cc1", "logP": 1.51}
{"smiles": "CCO[Si](C)(C)OCC", "logP": 0.61}
{"smiles": "CN(C)C(=O)Nc1cccc(Cl)c1", "logP": 2}
{"smiles": "CC(=O)N[C@@H](CO)C(=O)N[C@@H](Cc1ccccc1)C(N)=O", "logP": -0.79}
{"smiles": "Cc1ccc2c(c1)c([N+](=O)[O-])cc[n+]2[O-]", "logP": 1.43}
{"smiles": "Cc1ccc(S(I)=C(N(C)C)N(C)C)cc1", "note": "(centres undefined)", "logP": -0.1}
{"smiles": "O=[N+]([O-])c1ccco1", "logP": 0.66}
{"smiles": "CN(C)CCCNC(=O)c1ccccc1", "logP": 1.27}
{"smiles": "Cc1ccc(NC(=O)N(C)C)cc1Cl", "logP": 2.41}
{"smiles": "N#Cc1ccncc1C#N", "logP": 0.24}
{"smiles": "ClC(Cl)(Cl)Cl", "logP": 2.83}
{"smiles": "CCc1ccc2c(c1)C(=O)c1ccc(NC(C)=O)cc1S2(=O)=O", "logP": 3.44}
{"smiles": "OCCN1CCN(CCCN2c3ccccc3Sc3ccc(C(F)(F)F)cc32)CC1", "logP": 4.36}
{"smiles": "CC(=O)N[C@@H](CC(C)C)C(=O)N[C@@H](CO)C(=O)N[C@@H](Cc1ccccc1)C(N)=O", "note": "(Ac-Leu-Ser-Phe-NH2)", "logP": 0.23}
{"smiles": "c1ccc2c(c1)ccc1ncccc12", "logP": 3.43}
{"smiles": "CN(C)c1cccnn1", "logP": 0.29}
{"smiles": "CNS(=O)(=O)c1ccc(N)cc1", "logP": -0.01}
{"smiles": "Oc1cccnc1", "logP": 0.48}
{"smiles": "CN(C)c1ccc(S(N)(=O)=O)cc1", "logP": 0.76}
{"smiles": "O=C(OC1CCCCC1)n1cc(F)c(=O)[nH]c1=O", "logP": 1.42}
{"smiles": "COC(=O)C(CC(C)C)NC(C)=O", "note": "(centres undefined)", "logP": 0.84}
{"smiles": "O=[N+]([O-])c1cc2ccccc2nn1", "logP": 0.73}
{"smiles": "O=C(NP(=O)(N1CC1)N1CC1)c1ccccc1Br", "logP": 1.08}
{"details": "pH 5.0"}
{"smiles": "N=C(NCCCCCCNC(=N)NC(=N)Nc1ccc(Cl)cc1)NC(=N)Nc1ccc(Cl)cc1", "logD": 0.08}
